Reference: patent US5066818A, “Photochromic naphthopyran compounds” (PPG Industries, Inc., priority 1990, dated 1991)

Key:
[1] = Photochromic response on optical bench of naphthopyrans imbibed into polymer test samples; type: physicochemical; settings: homopolymer of diethylene glycol bis(allyl carbonate); for Δ OD at SATURATION: 150 watt Xenon lamp, about one sun, twenty minutes exposure; for Bleach Rate T1/2: values in sec.
Description: Naphthopyran compounds prepared in the above-described Examples were imbibed by thermal transfer into test samples of a homopolymer of diethylene glycol bis(allyl carbonate) by the following procedure. Each naphthopyran was dissolved into toluene solvent to form a 4% solution of the compound. A piece of No. 4 Whatman filter paper was saturated with the naphthopyran solution and allowed to air dry. The dried filter paper was placed on one side of the polymer test sample, which measured 1/8 inch (0.3 centimeter)×2 inch (5.1 centimeters)×2 inch (5.1 centimeters). A piece of untreated filter paper was placed on the other side of the polymer test sample and the resulting sandwich placed between two plates of flat aluminum metal plates. The entire assembly was then placed in a 155° C. oven for a time sufficient to thermally transfer the naphthopyran into the polymer test sample.
The imbibed test samples were removed from the oven, washed with acetone, and tested for photochromic response rates on an optical bench. The samples were illuminated by a 150 watt Xenon lamp fitted with a copper sulfate bath and neutral density filter at an intensity of about one sun. The optical density at saturation was determined at twenty minutes exposure.

[2] = Photochromic behaviour (coloring, bleaching) stated in words; type: physicochemical; settings: for coloring on exposure to ultraviolet light: near ultraviolet; for bleaching / rate of fade in words: room temperature and above, or ambient temperature

Compound	Δ OD at SATURATION [1]	Bleach Rate T1/2 [1] [min]	coloring on exposure to ultraviolet light [2]	bleaching / rate of fade in words [2]
FC(F)(F)c1ccc(C2(c3ccccc3)C=Cc3ccc4ccccc4c3O2)cc1 (centres unmarked) [Comparative Example 4, 3-phenyl-3(4-trifluoromethylphenyl)-2H-naphtho[1,2-b]pyran]	1.63	–	–	–
COc1ccc(C2(c3ccc(OC)cc3C)C=Cc3c(ccc4ccccc34)O2)cc1 (centres unmarked) [Example 3, 3(2-methyl-4-methoxyphenyl)-3-(4methoxyphenyl)-3H-naphtho-[2,1-b]pyran]	1.35	8.5	–	–
COc1ccc(C2(c3ccccc3C)C=Cc3c(ccc4ccccc34)O2)cc1 (centres unmarked) [Example 4, 3(2-methylphenyl)-3-(4-methoxyphenyl)-3H-naphtho[2,1-b]pyran]	2.40	10	–	–
COc1ccc(C2(c3c(F)cccc3F)C=Cc3c(ccc4ccccc34)O2)cc1 (centres unmarked) [Example 6, 3(2,6-difluorophenyl)-3(4-methoxyphenyl)-3H-naphtho[2,1-b]pyran]	2.23	–	–	–
COc1ccc(C2(c3ccc(C)cc3)C=Cc3c(ccc4ccccc34)O2)cc1 (centres unmarked) [compound 3, 3(4-methylphenyl)-3-(4-methoxyphenyl)-3H-naphtho[2,1-b]pyran]	0.21	0.667	–	–
FC(F)(F)c1cccc(C2(c3cccc(C(F)(F)F)c3)C=Cc3ccc4ccccc4c3O2)c1 [compound 5, 3,3-di(3-trifluoromethyl)phenyl-2H-naphtho [1,2-b]pyran]	1.07	–	–	–

Further lines, with some results ahead:

Δ OD at SATURATION [1]	Bleach Rate T1/2 [1] [min]	Compound	coloring on exposure to ultraviolet light [2]	bleaching / rate of fade in words [2]
0.25	0.583	COc1ccc(C2(c3ccccc3)C=Cc3c(ccc4ccccc34)O2)cc1 (centres unmarked) [Comparative Example 2, 3-phenyl-3(4-methoxyphenyl)-3H-naphtho[2,1-b]pyran]	–	–
1.42	8.5	COc1ccc(C2(c3ccccc3)C=Cc3c(ccc4ccccc34)O2)c(OC)c1 (centres unmarked) [Example 5, 3-phenyl-3-(2,4-dimethoxyphenyl)-3H-naphtho[2,1-b]pyran]	–	–
1.37	–	C1=CC(c2ccccc2)(c2ccccc2)Oc2c1ccc1ccccc21 [a., 2,2diphenyl-2H naphthol[1,2b]pyran]	colors on exposure to near ultraviolet light at room temperature	does not bleach in a reasonable period of time
0.36	0.75	C1=CC(c2ccccc2)(c2ccccc2)Oc2ccc3ccccc3c21 [compound 1, 3,3-diphenyl-3H-naphtho[2,1-b]pyran]	change color on exposure to the near ultraviolet	bleaches too rapidly for use in an ophthalmic lens
